The text below walks through data of patent US9908868B2, “Isoindolinone compounds as GPR119 modulators for the treatment of diabetes, obesity, dyslipidemia and related disorders” (SANOFI, priority 2014, dated 2018).

Broadly, the EC50 is the concentration at which the effect is half-maximal.

The assay has as its target T1, human GPR119 (Homo sapiens, UniProt Q8TDV5).
T1 construct: expressed in transfected cells
T1 sequence (Q8TDV5 1-335): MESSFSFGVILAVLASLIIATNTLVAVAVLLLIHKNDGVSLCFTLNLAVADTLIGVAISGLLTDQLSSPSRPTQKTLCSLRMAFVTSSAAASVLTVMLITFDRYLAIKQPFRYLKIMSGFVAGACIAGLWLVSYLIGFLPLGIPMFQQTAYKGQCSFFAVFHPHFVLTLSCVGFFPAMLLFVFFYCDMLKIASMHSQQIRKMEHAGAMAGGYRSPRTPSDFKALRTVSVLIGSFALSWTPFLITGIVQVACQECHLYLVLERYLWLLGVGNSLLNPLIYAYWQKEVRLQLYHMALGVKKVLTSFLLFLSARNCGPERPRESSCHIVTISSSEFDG
Put plainly: Functional cellular assay measuring GPR119-mediated cAMP release (HTRF) in HEK-293 cells stably expressing recombinant human GPR119. Type of assay: cell-based. The conditions noted are these: cAMP response, cell line expressing human GPR119, 30 minutes at room temperature. On the procedure: Functional Cellular Assays Measuring GPR119-Mediated cAMP Release
Compounds of the invention, which are agonists of GPR119, were characterized by functional assays measuring the cAMP response of HEK-293 cell lines stably expressing recombinant GPR119 from man, mouse or rat, or by using a hamster cell line HIT-T15 expressing GPR119 endogenously. The cAMP content was determined using a kit based on homogenous time-resolved fluorescence (HTRF) from Cisbio Corp. (cat. no. 62AM4PEC). For preparation, cells were split into T175 culture flasks and grown to near confluency in medium (DMEM/10% FCS for HEK-293 cells, and F-12K medium/10% horse serum/2.5% FCS for HIT-T15 cells, respectively). Medium was then removed and cells washed with PBS lacking calcium and magnesium ions, followed by proteinase treatment with accutase (Sigma-Aldrich, cat. no. A6964). Detached cells were washed and resuspended in assay buffer (1×HBSS; 20 mM HEPES, 0.1% BSA, 2 mM IBMX) and cellular density determined. They were then diluted to 400000 cells/mL and 25 μL-aliquots dispensed to the wells of 96-well plates. For measurement, 25 μL of test compound in assay buffer was added and incubated for 30 minutes at room temperature. After addition of HTRF reagents diluted in lysis buffer, the plates were incubated for 1 hour, followed by measuring the fluorescence ratio at 665 vs. 620 nm. Potency of the agonists was quantified by determining the concentrations that caused 50% of the maximal response/activation (EC50). See Table 7 for exemplary data obtained using the cell line expressing human GPR119.
A general note: TR-FRET usually uses a lanthanide donor and a delayed reading to cut background.

As for `NC(=O)CN1Cc2ccc(N3CC[C@@H](Oc4ccc(C(=O)C5CC5)nc4)C3=O)cc2C1=O` [Example 2-52, 2-[6-[(3R)-3-[[6-(cyclopropanecarbonyl)-3-pyridyl]oxy]-2-oxo-pyrrolidin-1-yl]-1-oxo-isoindolin-2-yl]acetamide], the EC50 came to 207 nM.
For `CN(C)C(=O)CN1Cc2ccc(N3CC[C@@H](Oc4ccc(SCC5CC5)nc4)C3=O)cc2C1=O` [Example 2-19, 2-[6-[(3R)-3-[[6-(cyclopropylmethylsulfanyl)-3-pyridyl]oxy]-2-oxo-pyrrolidin-1-yl]-1-oxo-isoindolin-2-yl]-N,N-dimethyl-acetamide] the value was 47 nM; for `CCOc1ccc(O[C@@H]2CCN(c3cc(F)c4c(c3)C(=O)N(CC(=O)N(CC)CC)C4)C2=O)cn1` [Example 4-14, 2-[6-[(3R)-3-[(6-ethoxy-3-pyridyl)oxy]-2-oxo-pyrrolidin-1-yl]-4-fluoro-1-oxo-isoindolin-2-yl]-N,N-diethyl-acetamide], 288 nM; for `O=C(CN1Cc2ccc(N3CC[C@@H](Oc4ccc(OCC5CC5)nc4)C3=O)cc2C1=O)NC1CC1` [Example 4-08, N-cyclopropyl-2-[6-[(3R)-3-[[6-(cyclopropylmethoxy)-3-pyridyl]oxy]-2-oxo-pyrrolidin-1-yl]-1-oxo-isoindolin-2-yl]acetamide], 168 nM.
For `O=C(CN1Cc2ccc(N3CC[C@@H](Oc4ccc(OCC5CC5)nc4)C3=O)cc2C1=O)N1CCC(O)CC1` [Example 4-03, 6-[(3R)-3-[[6-(cyclopropylmethoxy)-3-pyridyl]oxy]-2-oxo-pyrrolidin-1-yl]-2-[2-(4-hydroxy-1-piperidyl)-2-oxo-ethyl]isoindolin-1-one] the value was 206 nM; for `Cc1cc(O[C@@H]2CCN(c3ccc4c(c3)C(=O)N(CC(=O)N(C)C)C4)C2=O)cnc1OCC1CC1` [Example 2-07, 2-[6-[(3R)-3-[[6-(cyclopropylmethoxy)-5-methyl-3-pyridyl]oxy]-2-oxo-pyrrolidin-1-yl]-1-oxo-isoindolin-2-yl]-N,N-dimethyl-acetamide], 115 nM; for `C[S+]([O-])CN1Cc2ncc(N3CC[C@@H](Oc4ccc(C(=O)C5CC5)nc4)C3=O)cc2C1=O` (stereo partly drawn) [Example 1-57, 3-[(3R)-3-[[6-(cyclopropanecarbonyl)-3-pyridyl]oxy]-2-oxo-pyrrolidin-1-yl]-6-(methylsulfinylmethyl)-7H-pyrrolo[3,4-b]pyridin-5-one], 1120 nM.
For `CN(C)C(=O)CN1Cc2ccc(N3CC[C@@H](Oc4cnc(OCC5CC5)c(Br)c4)C3=O)cc2C1=O` [Example 2-47, 2-[6-[(3R)-3-[[5-bromo-6-(cyclopropylmethoxy)-3-pyridyl]oxy]-2-oxo-pyrrolidin-1-yl]-1-oxo-isoindolin-2-yl]-N,N-dimethyl-acetamide] the value was 90 nM; for `CN(C)C(=O)CN1Cc2ccc(N3CC[C@@H](Oc4ccc(S(F)(F)(F)(F)F)cc4)C3=O)cc2C1=O` [Example 2-27, N,N-dimethyl-2-[1-oxo-6-[(3R)-2-oxo-3-[4-(pentafluoro-λ{6}-sulfanyl)phenoxy]pyrrolidin-1-yl]isoindolin-2-yl]acetamide], 160 nM.
Regarding `CN(C)C(=O)CN1Cc2ccc(N3CC[C@@H](Oc4ccc(C(=O)N5CCCC5)cc4)C3=O)cc2C1=O` [Example 2-35, N,N-dimethyl-2-[1-oxo-6-[(3R)-2-oxo-3-[4-(pyrrolidine-1-carbonyl)phenoxy]pyrrolidin-1-yl]isoindolin-2-yl]acetamide], the EC50 is 8660 nM.
For `CN(C)C(=O)CN1Cc2ccc(N3CC[C@@H](Oc4ccc(C(=O)c5ccc(F)cc5)cc4)C3=O)cc2C1=O` [Example 2-15, 2-[6-[(3R)-3-[4-(4-fluorobenzoyl)phenoxy]-2-oxo-pyrrolidin-1-yl]-1-oxo-isoindolin-2-yl]-N,N-dimethyl-acetamide] the value was 66 nM.
Consider `CN(C)C(=O)CN1Cc2ccc(N3CC[C@@H](Oc4ccc(OC5CC5)nc4)C3=O)cc2C1=O` [Example 1-37, 2-[6-[(3R)-3-[[6-(cyclopropoxy)-3-pyridyl]oxy]-2-oxo-pyrrolidin-1-yl]-1-oxo-isoindolin-2-yl]-N,N-dimethyl-acetamide], for which the EC50 was 1040 nM.
As to `CN(C)C(=O)CN1Cc2ccc(N3CC[C@@H](Oc4ccc(Oc5ccccn5)cc4)C3=O)cc2C1=O` [Example 2-23, N,N-dimethyl-2-[1-oxo-6-[(3R)-2-oxo-3-[4-(2-pyridyloxy)phenoxy]pyrrolidin-1-yl]isoindolin-2-yl]acetamide], the EC50 came to 261 nM.
For `CN(C)C(=O)CN1Cc2ccc(N3CC[C@@H](Oc4ccc(Oc5ccc(F)cc5)nc4)C3=O)cc2C1=O` [Example 2-14, 2-[6-[(3R)-3-[[6-(4-fluorophenoxy)-3-pyridyl]oxy]-2-oxo-pyrrolidin-1-yl]-1-oxo-isoindolin-2-yl]-N,N-dimethyl-acetamide] the value was 85 nM; for `CS(=O)(=O)CN1Cc2ccc(N3CC[C@@H](Oc4ccc(Oc5ccc(F)cc5)nc4)C3=O)cc2C1=O` [Example 1-53, 6-[(3R)-3-[[6-(4-fluorophenoxy)-3-pyridyl]oxy]-2-oxo-pyrrolidin-1-yl]-2-(methylsulfonylmethyl)isoindolin-1-one], 98 nM; for `COC(=O)CN1Cc2ccc(N3CC[C@@H](Oc4ccc(OCCC5CC5)nc4)C3=O)cc2C1=O` [Example 1-32, methyl 2-[6-[(3R)-3-[[6-(2-cyclopropylethoxy)-3-pyridyl]oxy]-2-oxo-pyrrolidin-1-yl]-1-oxo-isoindolin-2-yl]acetate], 63 nM.
For `CN(C)C(=O)CN1Cc2ncc(N3CC[C@@H](Oc4ccc(OCC5CC5)nc4)C3=O)cc2C1=O` [Example 1-11, 2-[3-[(3R)-3-[[6-(cyclopropylmethoxy)-3-pyridyl]oxy]-2-oxo-pyrrolidin-1-yl]-5-oxo-7H-pyrrolo[3,4-b]pyridin-6-yl]-N,N-dimethyl-acetamide] the value was 202 nM; for `NC(=O)CN1Cc2ccc(N3CC[C@@H](Oc4ccc(OCC(F)(F)F)nc4)C3=O)cc2C1=O` [Example 1-56, 2-[1-oxo-6-[(3R)-2-oxo-3-[[6-(2,2,2-trifluoroethoxy)-3-pyridyl]oxy]pyrrolidin-1-yl]isoindolin-2-yl]acetamide], 51 nM.
For `CN(C)C(=O)CN1Cc2ccc(N3CC[C@@H](Oc4ccc(-n5cncn5)cc4)C3=O)cc2C1=O` [Example 2-25, N,N-dimethyl-2-[1-oxo-6-[(3R)-2-oxo-3-[4-(1,2,4-triazol-1-yl)phenoxy]pyrrolidin-1-yl]isoindolin-2-yl]acetamide] the value was 12000 nM.
With `CCOc1ccc(O[C@@H]2CCN(c3cc(F)c4c(c3)C(=O)N(CC(=O)NCCOC)C4)C2=O)cn1` [Example 4-18, 2-[6-[(3R)-3-[(6-ethoxy-3-pyridyl)oxy]-2-oxo-pyrrolidin-1-yl]-4-fluoro-1-oxo-isoindolin-2-yl]-N-(2-methoxyethyl)acetamide], the EC50 was determined as 381 nM.
For `CN(C)C(=O)CN1Cc2ccc(N3CC[C@@H](Oc4ccc(-c5ncc(F)s5)cc4)C3=O)cc2C1=O` [Example 2-64, 2-[6-[(3R)-3-[4-(5-fluorothiazol-2-yl)phenoxy]-2-oxo-pyrrolidin-1-yl]-1-oxo-isoindolin-2-yl]-N,N-dimethyl-acetamide] the value was 38 nM.
For `COC(=O)CN1Cc2ccc(N3CC[C@@H](Oc4ccc(OCC(F)(F)F)nc4)C3=O)cc2C1=O` [Example 1-65, methyl 2-[1-oxo-6-[(3R)-2-oxo-3-[[6-(2,2,2-trifluoroethoxy)-3-pyridyl]oxy]pyrrolidin-1-yl]isoindolin-2-yl]acetate], the EC50 stood at 52 nM.
For the compound `CN(C)C(=O)Cn1c(=O)c2cc(N3CC[C@@H](Oc4ccc(OCC5CC5)nc4)C3=O)ccc2n1C` [Example 1-27, 2-[5-[(3R)-3-[[6-(cyclopropylmethoxy)-3-pyridyl]oxy]-2-oxo-pyrrolidin-1-yl]-1-methyl-3-oxo-indazol-2-yl]-N,N-dimethyl-acetamide], the EC50 was determined as 488 nM.
For `CN(C)C(=O)CN1Cc2ccc(N3CC[C@@H](Oc4ccc(N5CCCC5=O)cc4)C3=O)cc2C1=O` [Example 2-28, N,N-dimethyl-2-[1-oxo-6-[(3R)-2-oxo-3-[4-(2-oxopyrrolidin-1-yl)phenoxy]pyrrolidin-1-yl]isoindolin-2-yl]acetamide] the value was 1470 nM; for `CN(C)C(=O)CN1Cc2ccc(N3CC[C@@H](Oc4ccc(N5CCOCC5)cc4)C3=O)cc2C1=O` [Example 2-24, N,N-dimethyl-2-[6-[(3R)-3-(4-morpholinophenoxy)-2-oxo-pyrrolidin-1-yl]-1-oxo-isoindolin-2-yl]acetamide], 21000 nM.
